Key:
[1] = Inhibition of HCV genotype 1b NS3/4A protease D168Y mutant assessed as substrate cleavage using Ac-C(Eu)DDMEEAbu(COO)ASK(QSY7)-amide as substrate incubated for 30 mins prior to substrate addition measured after 2.5 hrs by time-resolved fluorescence assay; set-up: species or system Hepatitis C virus subtype 1b
[2] = tested on: Hepatitis C virus; experiment: Antiviral activity against HCV genotype 2a infected in human HuH7 cells assessed as reduction viral RNA level after 72 hrs by RT-PCR method; assay type: functional, cell-based, Hepacivirus hominis; conditions: Huh-7, 72 h
[3] = Inhibition of HCV genotype 3a NS3/4A protease assessed as substrate cleavage using Ac-C(Eu)DDMEEAbu(COO)ASK(QSY7)-amide as substrate incubated for 30 mins prior to substrate addition measured after 2.5 hrs by time-resolved fluorescence assay; set-up: species or system Hepatitis C virus subtype 3a
[4] = Inhibition of HCV genotype 1b NS3/4A protease assessed as substrate cleavage using Ac-C(Eu)DDMEEAbu(COO)ASK(QSY7)-amide as substrate incubated for 30 mins prior to substrate addition measured after 2.5 hrs by time-resolved fluorescence assay; set-up: species or system Hepatitis C virus subtype 1b
[5] = tested on: Hepatitis C virus; experiment: Antiviral activity against HCV genotype 3a infected in human HuH7 cells assessed as reduction viral RNA level after 72 hrs by RT-PCR method; assay type: functional, cell-based, Hepacivirus hominis; conditions: Huh-7, 72 h
[6] = tested on: Hepatitis C virus; experiment: Antiviral activity against HCV genotype 1b infected in human HuH7 cells assessed as reduction viral RNA level after 72 hrs by RT-PCR method; assay type: functional, cell-based, Hepacivirus hominis; conditions: Huh-7, 72 h
[7] = tested on: Hepatitis C virus; experiment: Antiviral activity against HCV genotype 1a infected in human HuH7 cells assessed as reduction viral RNA level after 72 hrs by RT-PCR method; assay type: functional, cell-based, Hepacivirus hominis; conditions: subtype 1a, Huh-7, 72 h
[8] = Inhibition of HCV genotype 1b NS3/4A protease A156V mutant assessed as substrate cleavage using Ac-C(Eu)DDMEEAbu(COO)ASK(QSY7)-amide as substrate incubated for 30 mins prior to substrate addition measured after 2.5 hrs by time-resolved fluorescence assay; set-up: species or system Hepatitis C virus subtype 1b
[9] = Inhibition of HCV genotype 1a NS3/4A protease assessed as substrate cleavage using Ac-C(Eu)DDMEEAbu(COO)ASK(QSY7)-amide as substrate incubated for 30 mins prior to substrate addition measured after 2.5 hrs by time-resolved fluorescence assay; set-up: species or system Hepatitis C virus subtype 1a
[10] = Inhibition of HCV genotype 1b NS3/4A protease A156T mutant assessed as substrate cleavage using Ac-C(Eu)DDMEEAbu(COO)ASK(QSY7)-amide as substrate incubated for 30 mins prior to substrate addition measured after 2.5 hrs by time-resolved fluorescence assay; set-up: species or system Hepatitis C virus subtype 1b
[11] = Inhibition of HCV genotype 2a NS3/4A protease assessed as substrate cleavage using Ac-C(Eu)DDMEEAbu(COO)ASK(QSY7)-amide as substrate incubated for 30 mins prior to substrate addition measured after 2.5 hrs by time-resolved fluorescence assay; set-up: species or system Hepatitis C virus subtype 2a
[12] = molecular target: Hepatitis C virus serine protease, NS3/NS4A (Hepatitis C virus, UniProt A3EZI9+D2K2A8, R155K); experiment: Inhibition of HCV genotype 1b NS3/4A protease R155K mutant assessed as substrate cleavage using Ac-C(Eu)DDMEEAbu(COO)ASK(QSY7)-amide as substrate incubated for 30 mins prior to substrate addition measured after 2.5 hrs by time-resolved fluorescence assay; set-up: species or system Hepatitis C virus subtype 1b
[13] = Drug uptake in rat liver at 10 mg/kg, po measured after 24 hrs; assay type: ADME, organism-based; conditions: read-out: Drug uptake
[14] = AUC in rat at 10 mg/kg, po; assay type: ADME, organism-based; conditions: in vivo
[15] = Total clearance in rat at 2 mg/kg, iv or 10 mg/kg, po; assay type: ADME, organism-based; conditions: in vivo
[16] = Volume of distribution in rat at 2 mg/kg, iv or 10 mg/kg, po; assay type: ADME, organism-based; conditions: in vivo
[17] = Ratio of drug level in rat liver to EC50 for HCV genotype 3a
[18] = AUC in rat at 5 mg/kg, po; assay type: ADME, organism-based; conditions: in vivo
[19] = Total clearance in rat at 2 mg/kg, iv or 5 mg/kg, po; assay type: ADME, organism-based; conditions: in vivo
[20] = Half life in rat at 2 mg/kg, iv or 5 mg/kg, po; assay type: ADME, organism-based; conditions: in vivo
[21] = Drug uptake in rat liver at 5 mg/kg, po measured after 24 hrs; assay type: ADME, organism-based; conditions: read-out: Drug uptake
[22] = Volume of distribution in rat at 2 mg/kg, iv or 5 mg/kg, po; assay type: ADME, organism-based; conditions: in vivo

SMILES | IC50 [1] [pM] | EC50 [2] [pM] | IC50 [3] [pM] | IC50 [4] [pM] | EC50 [5] [pM] | EC50 [6] [pM] | EC50 [7] [pM] | IC50 [8] [pM] | IC50 [9] [pM] | IC50 [10] [pM] | IC50 [11] [pM] | IC50 [12] [pM] | further results
COc1ccc2nc(C(F)(F)F)c3c(c2c1)CC[C@]1(C[C@H]2C(=O)N[C@]4(C(=O)NS(=O)(=O)C5(C)CC5)C[C@H]4/C=C\CCCCC[C@H](NC(=O)OCC(C)C)C(=O)N2C1)O3 | 30 | 2000 | 530 | 10 | 2000 | 1200 | 3700 | 3670 | 10 | 590 | 20 | – | –
C=C[C@@H]1C[C@]1(NC(=O)[C@@H]1C[C@]23CCc4c(c(nc5ccc(OC)cc45)CCCCC[C@@H]4C[C@H]4OC(=O)N[C@@H](C4(C)CCCCC4)C(=O)N1C2)O3)C(=O)NS(=O)(=O)C1CC1 | – | 2700 | 1000 | 30 | 5700 | 1000 | 8100 | 5770 | 50 | 4860 | 80 | 50 | –
COc1ccc2nc3c4c(c2c1)CC[C@]1(C[C@H]2C(=O)N[C@]5(C(=O)NS(=O)(=O)C6(C)CC6)C[C@H]5/C=C\CCCCC[C@H](NC(=O)O[C@@H]5CCC[C@H]5CCCCC3)C(=O)N2C1)O4.[K+] | – | – | – | – | – | – | – | – | – | – | – | – | concentration at 24 h [13]: 0.003 µM; AUC [14]: 0.8 µM·h; clearance [15]: 12.4 mL/min/kg; Vd [16]: 8.6 L/kg
COc1ccc2nc3c4c(c2c1)CC[C@]1(C[C@H]2C(=O)N[C@]5(C(=O)NS(=O)(=O)C6(C)CC6)C[C@H]5/C=C\CCCCC[C@H](NC(=O)O[C@@H]5CCC[C@H]5CCCCC3)C(=O)N2C1)O4 | 40 | 1700 | 260 | 20 | 2300 | 800 | 4700 | 270 | 50 | 340 | 60 | 50 | –
C=C[C@@H]1C[C@]1(NC(=O)[C@@H]1C[C@]23CCc4c(c(nc5ccc(OC)cc45)CCCCC[C@@H]4CCC[C@H]4OC(=O)N[C@@H](C(C)(C)C)C(=O)N1C2)O3)C(=O)NS(=O)(=O)C1CC1 | 40 | 4500 | 510 | 10 | 6800 | 900 | 4800 | 3410 | 20 | 3090 | 50 | 30 | Ratio [17]: >200
COc1ccc2nc(C(F)(F)F)c3c(c2c1)CC[C@]1(C[C@H]2C(=O)N[C@]4(C(=O)NS(=O)(=O)C5(C)CC5)C[C@H]4/C=C\CCCCC[C@H](NC(=O)OCC(C)C)C(=O)N2C1)O3.[K+] | – | – | – | – | – | – | – | – | – | – | – | – | AUC [18]: 9.2 µM·h; clearance [19]: 4.7 mL/min/kg; half-life [20]: 2.8 h; concentration at 24 h [21]: 28 µM; Vd [22]: 0.3 L/kg
